Experimental data reported in US20220220103A1, “CYCLIN-DEPENDENT KINASE INHIBITORS” (SPV THERAPEUTICS INC., priority 2018, published 2022).
Where “and” joins values, the source holds several entries; their conditions need not be identical. Identical values can stand only once. Like-named read-outs stand apart in the source and are kept apart here.

Columns and labels:
Assay type in all cases: biochemical
CDK4-CYCLIND1 = CDK4-CYCLIND1 (Homo sapiens, UniProt P11802); assay: Microfluidic LabChip inhibition assay, CDK4-CYCLIND1; conditions: ATP 200 μM
Sequence of CDK4-CYCLIND1 (P11802 whole entry): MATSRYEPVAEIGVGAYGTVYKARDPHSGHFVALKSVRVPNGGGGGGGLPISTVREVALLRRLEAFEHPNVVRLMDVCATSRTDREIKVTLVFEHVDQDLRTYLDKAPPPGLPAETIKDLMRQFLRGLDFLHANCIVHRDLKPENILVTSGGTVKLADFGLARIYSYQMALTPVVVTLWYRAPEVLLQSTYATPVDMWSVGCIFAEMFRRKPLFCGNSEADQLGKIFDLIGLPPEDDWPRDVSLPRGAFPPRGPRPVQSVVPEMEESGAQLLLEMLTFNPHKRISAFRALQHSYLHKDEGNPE
Sequence of CDK4-CYCLIND1 (P24385 whole entry partner): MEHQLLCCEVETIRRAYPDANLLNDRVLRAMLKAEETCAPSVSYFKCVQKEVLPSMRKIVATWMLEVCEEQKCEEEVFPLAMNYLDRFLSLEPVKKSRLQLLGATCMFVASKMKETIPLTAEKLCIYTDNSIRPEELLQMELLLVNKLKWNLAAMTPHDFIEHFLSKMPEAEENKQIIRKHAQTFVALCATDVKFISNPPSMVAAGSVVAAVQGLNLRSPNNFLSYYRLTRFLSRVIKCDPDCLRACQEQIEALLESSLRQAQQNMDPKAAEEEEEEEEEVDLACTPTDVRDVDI
Description: (§1) The reaction was terminated by the addition of EDTA. The plates were analyzed using a Caliper LabChip 3000.
(§2) Additional inhibition assays were performed as described above.

CDK6-CYCLIND3 = CDK6-CYCLIND3 (Homo sapiens, UniProt Q00534); assay: Microfluidic LabChip inhibition assay, CDK6-CYCLIND3; conditions: ATP 300 μM
Sequence of CDK6-CYCLIND3 (Q00534 whole entry): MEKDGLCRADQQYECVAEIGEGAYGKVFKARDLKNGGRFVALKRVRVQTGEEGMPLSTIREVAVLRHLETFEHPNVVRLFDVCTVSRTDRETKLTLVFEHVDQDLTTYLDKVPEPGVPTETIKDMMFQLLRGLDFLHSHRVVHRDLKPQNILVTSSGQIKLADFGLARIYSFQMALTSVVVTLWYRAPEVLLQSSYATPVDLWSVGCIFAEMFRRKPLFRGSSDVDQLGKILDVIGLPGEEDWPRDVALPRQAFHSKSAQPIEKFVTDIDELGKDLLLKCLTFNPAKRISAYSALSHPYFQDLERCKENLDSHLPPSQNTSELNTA
Sequence of CDK6-CYCLIND3 (P30281 whole entry partner): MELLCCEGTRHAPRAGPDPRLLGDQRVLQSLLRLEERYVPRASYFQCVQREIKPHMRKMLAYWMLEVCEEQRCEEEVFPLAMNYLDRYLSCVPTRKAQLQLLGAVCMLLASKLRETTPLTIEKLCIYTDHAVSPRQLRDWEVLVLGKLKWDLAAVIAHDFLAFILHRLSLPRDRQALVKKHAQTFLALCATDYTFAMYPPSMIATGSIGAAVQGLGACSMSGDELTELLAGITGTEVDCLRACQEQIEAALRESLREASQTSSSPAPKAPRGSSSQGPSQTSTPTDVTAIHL
Description: as §1, §2

CDK7 CyclinH = CDK7 CyclinH (Homo sapiens, UniProt P50613); assay: Inhibition assay, CDK7 CyclinH
Sequence of CDK7 CyclinH (P50613 whole entry): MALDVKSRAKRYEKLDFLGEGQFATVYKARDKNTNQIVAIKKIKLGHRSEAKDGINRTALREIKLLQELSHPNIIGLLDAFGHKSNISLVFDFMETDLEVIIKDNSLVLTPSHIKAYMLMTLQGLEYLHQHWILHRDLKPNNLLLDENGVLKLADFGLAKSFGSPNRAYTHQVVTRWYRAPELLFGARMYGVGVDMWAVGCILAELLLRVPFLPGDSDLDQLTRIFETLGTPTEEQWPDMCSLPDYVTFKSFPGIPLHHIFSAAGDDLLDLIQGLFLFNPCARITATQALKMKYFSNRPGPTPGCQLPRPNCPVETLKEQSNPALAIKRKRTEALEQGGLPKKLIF
Sequence of CDK7 CyclinH (P51946 whole entry partner): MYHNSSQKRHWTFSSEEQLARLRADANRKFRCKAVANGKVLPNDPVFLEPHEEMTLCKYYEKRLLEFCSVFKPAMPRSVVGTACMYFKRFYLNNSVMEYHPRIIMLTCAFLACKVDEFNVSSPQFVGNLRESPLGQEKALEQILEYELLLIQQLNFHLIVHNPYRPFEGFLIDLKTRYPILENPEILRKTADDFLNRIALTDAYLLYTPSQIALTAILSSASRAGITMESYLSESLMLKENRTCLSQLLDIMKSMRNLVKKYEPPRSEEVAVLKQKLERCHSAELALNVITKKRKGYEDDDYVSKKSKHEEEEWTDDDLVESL
Sequence of CDK7 CyclinH (P51948 whole entry partner): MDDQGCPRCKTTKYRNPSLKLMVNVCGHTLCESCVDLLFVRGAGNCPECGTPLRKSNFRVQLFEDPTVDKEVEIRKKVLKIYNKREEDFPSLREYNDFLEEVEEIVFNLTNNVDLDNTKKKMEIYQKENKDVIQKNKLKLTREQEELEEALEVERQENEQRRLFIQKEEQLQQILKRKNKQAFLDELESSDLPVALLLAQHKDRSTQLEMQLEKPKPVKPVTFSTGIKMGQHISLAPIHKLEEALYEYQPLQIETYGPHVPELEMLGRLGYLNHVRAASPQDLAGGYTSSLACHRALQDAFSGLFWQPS
Description: as §1, §2

CDK2-CYCLINA = CDK2-CYCLINA (Homo sapiens, UniProt P24941); assay: Microfluidic LabChip inhibition assay, CDK2-CYCLINA; conditions: ATP 50 μM
Description: as §1, §2

CDK9-CYCLINT1 = CDK9-CYCLINT1 (Homo sapiens, UniProt P50750); assay: Microfluidic LabChip inhibition assay, CDK9-CYCLINT1; conditions: ATP 10 μM
Sequence of CDK9-CYCLINT1 (P50750 whole entry): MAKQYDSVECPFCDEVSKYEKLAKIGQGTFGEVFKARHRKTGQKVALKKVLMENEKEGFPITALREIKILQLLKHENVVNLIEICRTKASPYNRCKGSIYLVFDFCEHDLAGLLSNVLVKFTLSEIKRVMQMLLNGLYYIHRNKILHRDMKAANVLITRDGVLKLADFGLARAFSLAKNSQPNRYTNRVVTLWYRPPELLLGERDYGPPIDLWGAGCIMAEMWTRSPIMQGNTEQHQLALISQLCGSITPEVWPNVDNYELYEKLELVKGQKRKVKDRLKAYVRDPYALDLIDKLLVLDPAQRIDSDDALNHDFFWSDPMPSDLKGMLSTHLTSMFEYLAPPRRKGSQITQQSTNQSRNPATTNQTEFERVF
Sequence of CDK9-CYCLINT1 (O60563 whole entry partner): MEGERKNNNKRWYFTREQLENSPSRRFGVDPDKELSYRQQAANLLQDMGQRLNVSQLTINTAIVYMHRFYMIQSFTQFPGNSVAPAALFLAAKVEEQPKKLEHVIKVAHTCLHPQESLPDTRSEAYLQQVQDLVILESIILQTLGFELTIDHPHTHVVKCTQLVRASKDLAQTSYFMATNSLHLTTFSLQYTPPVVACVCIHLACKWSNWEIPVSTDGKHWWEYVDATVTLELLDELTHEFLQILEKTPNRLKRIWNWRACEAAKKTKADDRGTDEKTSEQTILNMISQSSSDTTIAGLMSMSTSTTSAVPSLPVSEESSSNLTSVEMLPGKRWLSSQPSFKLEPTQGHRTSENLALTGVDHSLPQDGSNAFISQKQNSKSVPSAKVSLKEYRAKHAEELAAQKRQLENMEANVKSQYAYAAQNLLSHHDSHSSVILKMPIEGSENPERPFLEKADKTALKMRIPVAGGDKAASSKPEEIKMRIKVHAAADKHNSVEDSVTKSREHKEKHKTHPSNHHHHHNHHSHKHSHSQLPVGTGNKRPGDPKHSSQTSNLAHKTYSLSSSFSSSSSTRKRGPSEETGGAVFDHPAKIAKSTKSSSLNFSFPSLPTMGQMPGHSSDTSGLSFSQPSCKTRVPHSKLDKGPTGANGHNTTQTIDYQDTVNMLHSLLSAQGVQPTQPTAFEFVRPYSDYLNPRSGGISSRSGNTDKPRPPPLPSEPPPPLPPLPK
Description: as §1, §2

CDK1/B = CDK1/B (Homo sapiens, UniProt P06493); assay: Inhibition assay, CDK1/B; conditions: Table 3a; read-out: CDK1/B IC50
Sequence of CDK1/B (P06493 whole entry): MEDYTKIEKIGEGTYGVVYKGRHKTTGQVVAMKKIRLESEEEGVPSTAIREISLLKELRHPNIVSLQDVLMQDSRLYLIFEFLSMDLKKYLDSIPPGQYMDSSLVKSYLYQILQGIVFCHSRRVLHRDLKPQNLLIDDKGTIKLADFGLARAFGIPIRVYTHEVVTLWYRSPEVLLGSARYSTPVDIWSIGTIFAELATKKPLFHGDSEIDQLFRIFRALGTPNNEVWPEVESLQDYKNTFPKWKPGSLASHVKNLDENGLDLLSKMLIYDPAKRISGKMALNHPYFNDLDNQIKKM
Sequence of CDK1/B (P14635 whole entry partner): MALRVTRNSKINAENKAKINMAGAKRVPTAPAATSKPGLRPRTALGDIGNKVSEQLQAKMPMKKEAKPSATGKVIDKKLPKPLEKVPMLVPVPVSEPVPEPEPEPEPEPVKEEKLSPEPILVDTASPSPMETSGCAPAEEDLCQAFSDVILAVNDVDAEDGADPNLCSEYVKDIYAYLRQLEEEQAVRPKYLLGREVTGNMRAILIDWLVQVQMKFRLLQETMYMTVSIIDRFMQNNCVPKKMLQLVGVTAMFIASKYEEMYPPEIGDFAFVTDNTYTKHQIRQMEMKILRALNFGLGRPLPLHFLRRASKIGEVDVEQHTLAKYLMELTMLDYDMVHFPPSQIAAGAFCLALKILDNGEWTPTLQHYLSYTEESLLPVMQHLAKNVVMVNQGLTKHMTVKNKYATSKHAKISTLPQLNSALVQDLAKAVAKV
Description: as §1, §2

[1] = Table 2, 25° C., read-out: CDK4 IC50
[2] = Table 2, 25° C., read-out: CDK6 IC50
[3] = Table 3a, second values in parentheses on the line below, not explained, read-out: CDK4 CyclinD1 IC50
[4] = Table 3b, second values in parentheses on the line below, not explained, read-out: CDK4 CyclinD1 IC50
[5] = Table 3a, read-out: CDK6 CyclinD3 IC50

Row | IC50 (CDK4-CYCLIND1; [3]) | IC50 (CDK4-CYCLIND1; [4]) | IC50 (CDK6-CYCLIND3; [5]) [nM] | Structure (SMILES) | further results
1 |  |  |  | N#Cc1cc2cnc(Nc3ccc(N4CCC(N5CCOCC5)CC4)c(F)c3)nc2n(C2CCCC2)c1=O [Compound B41, 8-cyclopentyl-2-((3-fluoro-4-(4-morpholinopiperidin-1-yl)phenyl)amino)-7-oxo-7,8-dihydropyrido[2,3-d]pyrimidine-6-carbonitrile] | IC50 (CDK4-CYCLIND1; [1]): 7.88 nM; IC50 (CDK6-CYCLIND3; [2]): 27.9 nM
2 |  |  |  | CN(C)[C@H]1CCN(c2ccc(Nc3ncc4cc(C#N)c(=O)n(C5CCCC5)c4n3)cc2)C1 [Compound B42, (S)-8-cyclopentyl-2-((4-(3-(dimethylamino)pyrrolidin-1-yl)phenyl)amino)-7-oxo-7,8-dihydropyrido[2,3-d]pyrimidine-6-carbonitrile] | IC50 (CDK4-CYCLIND1; [1]): 2.31 nM; IC50 (CDK6-CYCLIND3; [2]): 6.01 nM
3 |  |  |  | CN(C)[C@H]1CCN(c2ccc(Nc3ncc4cc(C#N)c(=O)n(C5CCCC5)c4n3)nc2)C1 [Compound B43, (S)-8-cyclopentyl-2-((5-(3-(dimethylamino)pyrrolidin-1-yl)pyridin-2-yl)amino)-7-oxo-7,8-dihydropyrido[2,3-d]pyrimidine-6-carbonitrile] | IC50 (CDK4-CYCLIND1; [1]): 46.9 nM; IC50 (CDK6-CYCLIND3; [2]): 61.5 nM
4 |  |  |  | CN(C)[C@H]1CCN(c2ccc(Nc3ncc4cc(C#N)c(=O)n(C5CCCC5)c4n3)cn2)C1 [Compound B44, (S)-8-cyclopentyl-2-((6-(3-(dimethylamino)pyrrolidin-1-yl)pyridin-3-yl)amino)-7-oxo-7,8-dihydropyrido[2,3-d]pyrimidine-6-carbonitrile] | IC50 (CDK4-CYCLIND1; [1]): 10.6 nM; IC50 (CDK6-CYCLIND3; [2]): 30.9 nM
5 |  |  |  | CN(C)[C@H]1CCN(c2ccc(Nc3ncc4cc(C#N)c(=O)n(C5CCCC5)c4n3)cc2F)C1 [Compound B45, (S)-8-cyclopentyl-2-((4-(3-(dimethylamino)pyrrolidin-1-yl)-3-fluorophenyl)amino)-7-oxo-7,8-dihydropyrido[2,3-d]pyrimidine-6-carbonitrile] | IC50 (CDK4-CYCLIND1; [1]): 3.68 nM; IC50 (CDK6-CYCLIND3; [2]): 9.86 nM
6 | 3 nM and 1.6 nM | 3 nM and 1.6 nM | 10.1 | CC(=O)c1c(C)c2cnc(Nc3ccc(OCCN(C)C)cc3)nc2n(C2CCCC2)c1=O [Compound B60, 6-acetyl-8-cyclopentyl-2-((4-(2-(dimethylamino)ethoxy)phenyl)amino)-5-methylpyrido[2,3-d]pyrimidin-7(8H)-one] | IC50 (CDK7 CyclinH; Table 3a): 1100 nM; IC50 (CDK7 CyclinH; Table 3b): 1100 nM; IC50 (CDK2-CYCLINA; Table 3a): 77.5 nM; IC50 (CDK2-CYCLINA; Table 3b): 77.5 nM; IC50 (CDK9-CYCLINT1; Table 3a): 31.8 nM; IC50 (CDK9-CYCLINT1; Table 3b): 31.8 nM
7 | 1600 nM | 1600 nM | 3950 | CC(=O)c1c(C)c2cnc(Nc3ccc(OCCN(C)C)c(C)c3)nc2n(C2CCCC2)c1=O [Compound B61, 6-acetyl-8-cyclopentyl-2-((4-(2-(dimethylamino)ethoxy)-3-methylphenyl)amino)-5-methylpyrido[2,3-d]pyrimidin-7(8H)-one] | IC50 (CDK7 CyclinH; Table 3a): > 100000 nM; IC50 (CDK7 CyclinH; Table 3b): > 100000 nM; IC50 (CDK2-CYCLINA; Table 3a): 7730 nM; IC50 (CDK2-CYCLINA; Table 3b): 7730 nM; IC50 (CDK9-CYCLINT1; Table 3a): 790 nM; IC50 (CDK9-CYCLINT1; Table 3b): 790 nM
8 | 26.3 nM and 14 nM | 26.3 nM and 14 nM | 37.5 | COc1cc(Nc2ncc3c(C)c(C(C)=O)c(=O)n(C4CCCC4)c3n2)ccc1OCCN(C)C [Compound B62, 6-acetyl-8-cyclopentyl-2-((4-(2-(dimethylamino)ethoxy)-3-methoxyphenyl)amino)-5-methylpyrido[2,3-d]pyrimidin-7(8H)-one] | IC50 (CDK7 CyclinH; Table 3a): 1300 nM; IC50 (CDK7 CyclinH; Table 3b): 1300 nM; IC50 (CDK2-CYCLINA; Table 3a): 280 nM; IC50 (CDK2-CYCLINA; Table 3b): 280 nM; IC50 (CDK9-CYCLINT1; Table 3a): 336 nM; IC50 (CDK9-CYCLINT1; Table 3b): 336 nM
9 | 8.64 nM and 6.36 nM | 8.64 nM and 6.36 nM | 37 | CC(=O)c1c(C)c2cnc(Nc3ccc(OCCN(C)C)nc3)nc2n(C2CCCC2)c1=O [Compound B63, 6-acetyl-8-cyclopentyl-2-((6-(2-(dimethylamino)ethoxy)pyridin-3-yl)amino)-5-methylpyrido[2,3-d]pyrimidin-7(8H)-one] | 
10 | 8.22 nM | 8.22 nM | 76.1 | CC(=O)c1c(C)c2cnc(Nc3ccc(N(C)CCN(C)C)cc3)nc2n(C2CCCC2)c1=O [Compound B64, 6-acetyl-8-cyclopentyl-2-((4-((2-(dimethylamino)ethyl)(methyl)amino)phenyl)amino)-5-methylpyrido[2,3-d]pyrimidin-7(8H)-one] | 
11 | 1.47 nM | 1.47 nM | 46.7 | CC(=O)c1c(C)c2cnc(Nc3ccc(OCCN(C)C)cn3)nc2n(C2CCCC2)c1=O [Compound B65, 6-acetyl-8-cyclopentyl-2-((5-(2-(dimethylamino)ethoxy)pyridin-2-yl)amino)-5-methylpyrido[2,3-d]pyrimidin-7(8H)-one] | 
12 | 48.8 nM | 48.8 nM | 298 | CC(=O)c1c(C)c2cnc(Nc3ccc(OCCN4CCCCC4)cn3)nc2n(C2CCCC2)c1=O [Compound B67, 6-acetyl-8-cyclopentyl-5-methyl-2-((5-(2-(piperidin-1-yl)ethoxy)pyridin-2-yl)amino)pyrido[2,3-d]pyrimidin-7(8H)-one] | 
13 | 7.4 nM | 7.4 nM | 76.2 | CN1CCN(c2ccc(Nc3ncc4cc(C(=O)N(C)C)c(=O)n(C5CCCC5)c4n3)cc2F)CC1 [Compound B139, 8-cyclopentyl-2-((3-fluoro-4-(4-methylpiperazin-1-yl)phenyl)amino)-N,N-dimethyl-7-oxo-7,8-dihydropyrido[2,3-d]pyrimidine-6-carboxamide] | 
14 | 715 nM | 715 nM | 1990 | CN1CCN(c2ccc(Nc3ncc4cc(C(=O)N(C)C)c(=O)n(C5CCCC5)c4n3)nc2)CC1 [Compound B141, 8-cyclopentyl-N,N-dimethyl-2-((5-(4-methylpiperazin-1-yl)pyridin-2-yl)amino)-7-oxo-7,8-dihydropyrido[2,3-d]pyrimidine-6-carboxamide] | 
15 | 17 nM |  | 134 | CNC(=O)c1cc2cnc(Nc3ccc(N4CCN(C)CC4)cc3)nc2n(C2CCCC2)c1=O [Compound B143, 8-cyclopentyl-N-methyl-2-((4-(4-methylpiperazin-1-yl)phenyl)amino)-7-oxo-7,8-dihydropyrido[2,3-d]pyrimidine-6-carboxamide] | 
16 | 13.6 nM and 10 nM | 13.6 nM and 10 nM | 138 | CNC(=O)c1cc2cnc(Nc3ccc(N4CCN(C)CC4)c(F)c3)nc2n(C2CCCC2)c1=O [Compound B144, 8-cyclopentyl-2-((3-fluoro-4-(4-methylpiperazin-1-yl)phenyl)amino)-N-methyl-7-oxo-7,8-dihydropyrido[2,3-d]pyrimidine-6-carboxamide] | 
17 | 370 nM | 370 nM | 2240 | CNC(=O)c1cc2cnc(Nc3ccc(N4CCN(C)CC4)nc3)nc2n(C2CCCC2)c1=O [Compound B145, 8-cyclopentyl-N-methyl-2-((6-(4-methylpiperazin-1-yl)pyridin-3-yl)amino)-7-oxo-7,8-dihydropyrido[2,3-d]pyrimidine-6-carboxamide] | 
18 | 459 nM | 459 nM | 1490 | CC(=O)NC(=O)c1cc2cnc(Nc3ccc(N4CCN(C)CC4)cn3)nc2n(C2CCCC2)c1=O [Compound B146, N-acetyl-8-cyclopentyl-2-((5-(4-methylpiperazin-1-yl)pyridin-2-yl)amino)-7-oxo-7,8-dihydropyrido[2,3-d]pyrimidine-6-carboxamide] | 
19 | 47 nM | 47 nM | 81.7 | N#Cc1cc2cnc(Nc3ccc(N4CCNCC4)c(F)c3)nc2n(C23CC(C2)C3)c1=O [Compound B147, 8-(bicyclo[1.1.1]pentan-1-yl)-2-((3-fluoro-4-(piperazin-1-yl)phenyl)amino)-7-oxo-7,8-dihydropyrido[2,3-d]pyrimidine-6-carbonitrile] | 
20 | 59.6 nM | 59.6 nM | 102 | CN1CCN(c2ccc(Nc3ncc4cc(C#N)c(=O)n(C56CC(C5)C6)c4n3)cc2F)CC1 [Compound B148, 8-(bicyclo[1.1.1]pentan-1-yl)-2-((3-fluoro-4-(4-methylpiperazin-1-yl)phenyl)amino)-7-oxo-7,8-dihydropyrido[2,3-d]pyrimidine-6-carbonitrile] | 
21 | < 3.2 nM | < 3.2 nM |  | CC(=O)c1c(C)c2cnc(Nc3ccc(N4CC(C)NC(C)C4)cc3)nc2n(C2CCCC2)c1=O (centres unmarked) [Compound B150, 6-acetyl-8-cyclopentyl-2-((4-(3,5-dimethylpiperazin-1-yl)phenyl)amino)-5-methylpyrido[2,3-d]pyrimidin-7(8H)-one] | IC50 (CDK7 CyclinH; Table 3a): 655 nM; IC50 (CDK7 CyclinH; Table 3b): 655 nM; IC50 (CDK1/B): 501 nM; IC50 (CDK2-CYCLINA; Table 3a): 196 nM; IC50 (CDK2-CYCLINA; Table 3b): 196 nM
22 |  |  |  | CC(=O)c1c(C)c2cnc(Nc3ccc(N(C)CCN(C)C)cc3)nc2n(C23CC(C2)C3)c1=O [Compound B154, 6-acetyl-8-(bicyclo[1.1.1]pentan-1-yl)-2-((4-((2-(dimethylamino)ethyl)(methyl)amino)phenyl)amino)-5-methylpyrido[2,3-d]pyrimidin-7(8H)-one] | IC50 (CDK7 CyclinH; Table 3a): 785 nM; IC50 (CDK7 CyclinH; Table 3b): 785 nM; IC50 (CDK1/B): 1720 nM; IC50 (CDK2-CYCLINA; Table 3a): 1520 nM; IC50 (CDK2-CYCLINA; Table 3b): 1520 nM
23 |  |  |  | CN1CCN(c2ccc(Nc3ncc4cc(C#N)c(=O)n(C5CCCC5)c4n3)cc2)CC1 [ON123300] | IC50 (CDK4-CYCLIND1; [1]): 1.68 nM; IC50 (CDK6-CYCLIND3; [2]): 4.76 nM
